Experiments:
[1] = system: F1174L-mutated ALK hairpin oligonucleotide (DNA, hairpin) AAATTAAACCACCAGAACATTTTTATGTTCTGGTGGTTTAATTT; test: SPR (Biacore X100), kinetic fit with mass transfer; details: 150 mM NaCl; HBS-EP: 10 mM HEPES, 3 mM EDTA, 0.005% P20, 0.1% DMSO, 25 °C
[2] = system: ALK wild-type (WT) hairpin oligonucleotide (DNA, hairpin) AAATTCAACCACCAGAACATTTTTATGTTCTGGTGGTTGAATTT; test: SPR (Biacore X100), kinetic fit with mass transfer; details: 150 mM NaCl; HBS-EP: 10 mM HEPES, 3 mM EDTA, 0.005% P20, 0.1% DMSO, 25 °C

- KD [1]: 6.37 ± 0.41 × 10^-8 M
- KD [2]: 58.20 ± 1.62 × 10^-8 M
Structure (SMILES): CC(=O)Nc1cc(C(=O)Nc2cc(C(=O)Nc3cc(C(=O)Nc4cc(C(=O)NCCC(=O)Nc5cc(C(=O)Nc6cc(C(=O)Nc7cc(C(=O)NCCCC(=O)Nc8cn(C)c(C(=O)Nc9cn(C)c(C(=O)NCCC(=O)Nc%10cn(C)c(C(=O)Nc%11cn(C)c(C(=O)Nc%12cc(C(=O)Nc%13ccc%14cc(C(=O)NCCCN(C)C)[nH]c%14c%13)n(C)c%12)n%11)n%10)n9)n8)n(C)c7)n(C)c6)n(C)c5)n(C)c4)n(C)c3)n(C)c2)n(C)c1

Source: publication PMC8483358 (2021)
